The values that follow are results of earlier work, collected in patent US20090252791A1, “PHARMACEUTICAL COMPOSITIONS COMPRISING A TRIPTAN AND A NONSTEROIDAL ANTI-INFLAMMATORY DRUG” (priority 2008, published 2009).

As for `CNS(=O)(=O)Cc1ccc2[nH]cc(CCN(C)C)c2c1` [Sumatriptan, 3-[2-(dimethylamino)ethyl]-N-methyl-1H-indole-5-methanesulfonamide], the “Solubility in water and in saline” value is “readily soluble”.
